Measured values from ChEMBL document CHEMBL1142123, “Guttiferones K and L, antiproliferative compounds of Rheedia calcicola from the Madagascar rain forest” (J Nat Prod, 2007).
In brackets after ≈: the same amount, converted by molar mass.

System: A2780
Experiment: Antiproliferative activity against human A2780 cells
Format: functional, cell-based

## CC(C)=CCC[C@@]1(C)[C@H](CC=C(C)C)C[C@]2(CC=C(C)C)C(=O)[C@@]1(CC=C(C)C)C(=O)C(C(=O)c1cc(O)c(O)cc1O)=C2O [GUTTIFERONE L]
  IC50: 3 µg/mL (≈ 4.85 µM)
